Among the test systems are A498 renal; ACHN renal; HCT-15 colon; NCI-H226 lung; OVCAR-3 ovarian; RPMI-8226 leukemia; SK-MEL-5 melanoma; SNB-75 CNS; SR leukemia; UACC-257 melanoma.
Holding throughout (assay): inhibition of tumour cell growth, NCI panel, 48 h

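Five compound concentrations were applied to cells in 96-well plates for 48 hours; endpoints were derived by simple linear interpolation of the resulting dose-response curve. Abbreviation: GI50, concentration required for 50% inhibition of growth. TGI: total growth inhibition.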

As for `C=CCn1c(=O)c(C(=O)NC(=O)OCC)cn(C2CCCCC2)c1=O`, the TGI in the assay on A498 renal, in the assay on ACHN renal, in the assay on HCT-15 colon, with NCI-H226 lung, in the assay on OVCAR-3 ovarian and in the assay with RPMI-8226 leukemia was more than 100 µM each time. In addition, the TGI in the assay on SK-MEL-5 melanoma, with SNB-75 CNS, with SR leukemia and with UACC-257 melanoma was more than 100 µM throughout.
On to `CCCCCCn1c2c(c3c(O)cccc31)C(=O)c1ccccc1-2`, for which the GI50 was 18.9 µM in the assay with A498 renal; 16.6 µM with ACHN renal; 18.6 µM with HCT-15 colon; 21.6 µM in the assay with NCI-H226 lung; 20.6 µM in the assay with OVCAR-3 ovarian; 20.3 µM in the assay with RPMI-8226 leukemia. Further, the GI50 in the assay on SK-MEL-5 melanoma is 19.4 µM; with SNB-75 CNS, 46.3 µM; in the assay on SR leukemia it was 26 µM; with UACC-257 melanoma, 15.1 µM. Also, the TGI with A498 renal was found to be 33.2 µM; with ACHN renal, 30.3 µM; in the assay on HCT-15 colon it was 37 µM; in the assay on NCI-H226 lung it was 39.7 µM; in the assay on OVCAR-3 ovarian, 43 µM; in the assay on RPMI-8226 leukemia it was 41.9 µM. Besides, the TGI with SK-MEL-5 melanoma is 34.6 µM; in the assay on SNB-75 CNS, more than 100 µM; in the assay on SR leukemia, more than 100 µM; with UACC-257 melanoma, 32.9 µM.
Take `COc1cccc(/C=C2\CCc3ccccc3C2=O)c1`: the GI50 was 12.1 µM in the assay on A498 renal; 10.2 µM in the assay on ACHN renal; 10.5 µM with HCT-15 colon; 17.8 µM in the assay on NCI-H226 lung; 12.9 µM in the assay with OVCAR-3 ovarian; 2.89 µM with RPMI-8226 leukemia. Moreover, the GI50 in the assay with SK-MEL-5 melanoma was 10.7 µM; in the assay with SNB-75 CNS, 16.9 µM; with SR leukemia it was 3.1 µM; with UACC-257 melanoma it was 13.4 µM. Also, the TGI stood at 25.1 µM in the assay on A498 renal; 25.3 µM in the assay on ACHN renal; 49.4 µM with HCT-15 colon; 43.1 µM in the assay on NCI-H226 lung; 26.2 µM in the assay with OVCAR-3 ovarian; 8.94 µM in the assay on RPMI-8226 leukemia. Further, the TGI came to 23 µM with SK-MEL-5 melanoma, 36 µM in the assay on SNB-75 CNS, 15.1 µM in the assay on SR leukemia and 28.9 µM in the assay on UACC-257 melanoma.
For the compound `CCN(CC)CC(O)c1cc(-c2ccc(Cl)cc2)nc2cc(Cl)ccc12` (stereo not given), the GI50 in the assay with A498 renal is 2.95 µM; in the assay on ACHN renal, 1.64 µM; in the assay with HCT-15 colon, 3.05 µM; in the assay on NCI-H226 lung, 2.21 µM; in the assay with OVCAR-3 ovarian, 1.92 µM; with RPMI-8226 leukemia it was 2.43 µM. Besides, the GI50 with SK-MEL-5 melanoma is 1.61 µM; in the assay with SNB-75 CNS it was 1.69 µM; with SR leukemia, 1.69 µM; in the assay with UACC-257 melanoma, 1.86 µM. The TGI is 10.1 µM in the assay with A498 renal; 3.39 µM in the assay on ACHN renal; 9.26 µM in the assay with HCT-15 colon; 7.15 µM with NCI-H226 lung; 4.05 µM in the assay with OVCAR-3 ovarian; 6.15 µM in the assay on RPMI-8226 leukemia. The TGI in the assay with SK-MEL-5 melanoma turned out to be 2.99 µM; with SNB-75 CNS it was 7.14 µM; in the assay with SR leukemia, 3.52 µM; in the assay on UACC-257 melanoma, 3.61 µM.
Consider `C/C(CC(=O)Nc1cccc(C)c1C)=N\NC(N)=S`, for which the TGI with A498 renal, in the assay with ACHN renal, in the assay with HCT-15 colon, in the assay on NCI-H226 lung, with OVCAR-3 ovarian and with RPMI-8226 leukemia was more than 100 µM in each case. For the same compound, the TGI is more than 100 µM in the assay with SK-MEL-5 melanoma, more than 100 µM in the assay with SNB-75 CNS, 56.5 µM in the assay on SR leukemia and more than 100 µM in the assay with UACC-257 melanoma.

(Values after PubChem BioAssay (NCI).)
